In patent publication US6673801B1, “Dihydroxyhexanoic acid derivatives” (Pfizer Inc., priority 1998, dated 2004) one finds solubility, melting point and Solubility data, which are given here for 11 compounds.

As a reminder, the solubility is the concentration that dissolves in the medium under given conditions. A low value points to a poorly soluble substance. One may read the melting point as the temperature of the solid-liquid transition.

Data set [1] is described as follows: Kinetic solubility assay (turbidometric, phosphate buffer). Particulars: pH 7, aqueous buffer, kinetic from dmso stock.
Protocol: (§1) Solubility of the compounds is determined at four fixed concentrations and is expressed as μg/mL. Solubility or insolubility is measured in phosphate buffer using a turbidometric plate reader by automated micro addition of a compound predissolved in DMSO. Solubilities at 50, 100, 200 and 250 or 100, 200, 400 and 500 micrograms/mL can be determined by predissolving 1 mg of compound in sufficient DMSO to reach an initial concentration of 20 or 40 μg/uL.
(§2) A spectramax 250 UV transparent 96 well microplate is filled with 200 uL of Stock pH 7 phosphate buffer solution. A series of 25 absorption readings in a 5 by 5 matrix at a wavelength of 492 nm are taken for each well in the microplate containing pH buffer alone. This scan is to be used as a “blank”, and the raw optical dispersion (OD) values are used as a baseline.
(§3) Compounds in DMSO solution are then added (column wise) down the microplate. Up to twenty four samples are assayed with each compound being placed in four contiguous wells column wise. Each column of the microplate contains four concentrations of compound in ascending concentration and ascending row order (A-D), or row (E-H). […] The plate is then shaken for 20 minutes to allow for mixing.
(§4) After compound addition, a second scan consisting of a series of 25 absorption readings in a 5 by 5 matrix are taken for each well in the microplate at the same wavelength as the first blank scan. The raw compound OD values for each reading in the 5 by 5 matrix are subtracted from the corresponding “blank” values in the 5 by 5 matrix to provide the raw solubility OD data.
(§5) Data obtained from the Tecan SLT Spectra Image Reader is then analyzed using a Visual Basic computer program (or can be calculated manually according to methods well known to those of ordinary skill in the art), so as to provide solubility data for each compound.
The conditions of data set [2]: pH 7.
Protocol: as §1, §2, §3, §4, §5

On to `CC(C)(O)CC[C@H](C[C@H](O)[C@H](Cc1ccc(F)c(F)c1)NC(=O)c1cnc2ccccc2n1)C(=O)NO` [Example 10, Quinoxaline-2-carboxylic acid [1(S)-(3,4-difluoro-benzyl)-2(S),7-dihydroxy-4(R)-hydroxycarbamoyl-7-methyloctyl]-amide], for which the melting point lay in the range of 150 to 153 °C. Besides, the solubility at 20 min in data set [1] is over 0.2 mg/mL.
For the compound `CC(C)(O)CC[C@H](C[C@H](O)[C@H](Cc1ccccc1F)NC(=O)c1cnc2ccccc2n1)C(N)=O` [Example 9, Quinoxaline-2-carboxylic acid [4(R)-carbamoyl-1(S)-(2-fluoro-benzyl)-2(S),7-dihydroxy-7-methyl-octyl]-amide], the melting point lay within 147 to 148 °C. Further, the solubility at 20 min in data set [1] is over 0.25 mg/mL.
`CC(C)(O)CC[C@H](C[C@H](O)[C@H](Cc1cccs1)NC(=O)c1cnc2ccccc2n1)C(N)=O` [Example 1, QUINOXALINE-2-CARBOXYLIC ACID (4(R)-CARBAMOYL-2(S),7-DIHYDROXY-7-METHYL-1(S)-THIOPHEN-2-YLMETHYL-OCTYL)-AMIDE] showed a solubility at 20 min in data set [1] of over 0.25 mg/mL.
`CNC(=O)[C@H](CC(C)C)C[C@H](O)[C@H](Cc1ccc2ccccc2c1)NC(=O)c1cnc2ccccc2n1` [Example 127, quinoxaline-2-carboxylic acid (2(S)-hydroxy-6-methyl-4(R)-methylcarbamoyl-1(S)-naphthalen-2-ylmethyl-heptyl)-amide, reference compound]: the solubility at 20 min in data set [1] is under 0.005 mg/mL.
Compound `CC(C)(O)CC[C@H](C[C@H](O)[C@H](Cc1ccccc1)NC(=O)c1cnc2ccccc2n1)C(=O)NO` [Example 6, Quinoxaline-2-carboxylic acid (1(S)-benzyl-2(S),7-dihydroxy-4(R)-hydroxycarbamoyl-7-methyl-octyl)-amide] returned a melting point of 108 to 110 °C. This compound had a solubility at 20 min in data set [1] of over 0.25 mg/mL.
Turning to `CC(C)(F)CC[C@H](C[C@H](O)[C@H](Cc1ccccc1)NC(=O)c1cnc(Cl)c(Cl)c1)C(N)=O` [Example 247], the Solubility result in data set [2] is on record as “less than 5 μg/mL”.
With `CC(C)(O)CC[C@H](C[C@H](O)[C@H](Cc1ccccc1F)NC(=O)c1cnc2ccccc2n1)C(=O)NO` [Example 8, Quinoxaline-2-carboxylic acid [1(S)-(2-fluoro-benzyl)-2(S),7-dihydroxy-4(R)-hydroxycarbamoyl-7-methyl-octyl]-amide], the melting point was 130 to 131 °C. The same compound registered a solubility at 20 min in data set [1] of over 0.25 mg/mL.
`CC(C)(O)CC[C@H](C[C@H](O)[C@H](Cc1ccc(F)c(F)c1)NC(=O)c1cnc2ccccc2n1)C(N)=O` [Example 11, Quinoxaline-2-carboxylic acid [4(R)-carbamoyl-1(S)-(3,4-difluoro-benzyl)-2(S),7-dihydroxy-7-methyl-octyl]-amide]: the melting point lay in the range of 110 to 120 °C. Further, in data set [1], the solubility at 20 min was over 0.25 mg/mL.
In data set [1], `CC(C)(O)CC[C@H](C[C@H](O)[C@H](Cc1ccccc1Cl)NC(=O)c1cnc2ccccc2n1)C(N)=O` [Example 7, Quinoxaline-2-carboxylic acid [4(R)-carbamoyl-1(S)-(2-chloro-benzyl)-2(S),7-dihydroxy-7-methyl-octyl]-amide] yielded a solubility at 20 min of over 0.25 mg/mL.
`CC(C)(O)CC[C@H](C[C@H](O)[C@H](Cc1cccc2ccccc12)NC(=O)c1cnc2ccccc2n1)C(N)=O` [Example 12, Quinoxaline-2-carboxylic acid (4(R)-carbamoyl-2(S),7-dihydroxy-7-methyl-1(S)-naphthalen-1-ylmethyl-octyl)-amide]: the melting point lay in the range of 155 to 158 °C. The compound also showed a solubility at 20 min in data set [1] of over 0.25 mg/mL.
With `CC(C)(O)CC[C@H](C[C@H](O)[C@H](Cc1ccccc1)NC(=O)c1cnc2c(F)c(F)c(F)cc2c1)C(N)=O` [Example 5, 6,7,8-Trifluoro-quinoline-3-carboxylic acid (1(S)-benzyl-4(R)-carbamoyl 2(S),7-dihydroxy-7-methyl-octyl)-amide], the melting point was in the range of 185 to 188 °C. Moreover, the solubility at 20 min in data set [1] was over 0.25 mg/mL.
